Assay results published in US20230115176A1 (Ra Pharmaceuticals, Inc., priority 2019, published 2023).
≈ marks a conversion by molar mass, not a printed value.

How the values were obtained:
Human C5 [1] = target: T1, Human C5 (Homo sapiens, UniProt P01031); assay: Red blood cell (RBC) hemolysis assay, luminescent (Example 13, Table 22); type: cell-based; settings: sheep EA cells, […] C5-depleted human serum, 0.5 nM human C5, 1 hour 37° C., luminescence; further: 1.5% C5-depleted human serum
T1 construct: purchased Complement Technology
Description: (§1) Compound CU0136 is a racemic mixture of Compound CU0186 and CU0187. Numbers in parenthesis following compound numbers indicate alternate enantiomers (as distinguished by retention time during chromatographical separation).

[2] = target: human C5 complement protein (Homo sapiens, UniProt P01031); assay: Surface plasmon resonance (SPR), immobilized human C5, 37° C. (Example 12, Table 21); type: binding; settings: where a range of compound concentrations were analyzed, the lowest value obtained
Description: as §1

[3] = Kinetic solubility in PBS pH 7.4, HPLC-UV (Example 21, Table 27); type: physicochemical; settings: phosphate buffered saline, aqueous buffer, kinetic from dmso stock, 0.5 M PBS, shaken minimum 24 h at approximately 25° C., HPLC-UV 270 nm
Summary of the method: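 10 mM DMSO stock diluted into 0.05 M PBS pH 7.4 (5% DMSO final), in triplicate, shaken ≥24 h at ~25 °C, then filtered by centrifugation. Supernatant concentration by HPLC-UV at 270 nm against external DMSO standards (15.6–500.0 μM).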

Human C5 [4] = target: T1, Human C5; assay: Red blood cell (RBC) hemolysis assay, luminescent (Example 24, Table 29); type: cell-based; settings: sheep EA cells, […] C5-depleted human serum, 0.5 nM human C5, 1 hour at 37° C., luminescence (Table 29)
Description: Numbers in parenthesis following the compound number indicate alternate enantiomers (as distinguished by retention time during chromatographical separation).

T1 sequence (P01031 19-1676): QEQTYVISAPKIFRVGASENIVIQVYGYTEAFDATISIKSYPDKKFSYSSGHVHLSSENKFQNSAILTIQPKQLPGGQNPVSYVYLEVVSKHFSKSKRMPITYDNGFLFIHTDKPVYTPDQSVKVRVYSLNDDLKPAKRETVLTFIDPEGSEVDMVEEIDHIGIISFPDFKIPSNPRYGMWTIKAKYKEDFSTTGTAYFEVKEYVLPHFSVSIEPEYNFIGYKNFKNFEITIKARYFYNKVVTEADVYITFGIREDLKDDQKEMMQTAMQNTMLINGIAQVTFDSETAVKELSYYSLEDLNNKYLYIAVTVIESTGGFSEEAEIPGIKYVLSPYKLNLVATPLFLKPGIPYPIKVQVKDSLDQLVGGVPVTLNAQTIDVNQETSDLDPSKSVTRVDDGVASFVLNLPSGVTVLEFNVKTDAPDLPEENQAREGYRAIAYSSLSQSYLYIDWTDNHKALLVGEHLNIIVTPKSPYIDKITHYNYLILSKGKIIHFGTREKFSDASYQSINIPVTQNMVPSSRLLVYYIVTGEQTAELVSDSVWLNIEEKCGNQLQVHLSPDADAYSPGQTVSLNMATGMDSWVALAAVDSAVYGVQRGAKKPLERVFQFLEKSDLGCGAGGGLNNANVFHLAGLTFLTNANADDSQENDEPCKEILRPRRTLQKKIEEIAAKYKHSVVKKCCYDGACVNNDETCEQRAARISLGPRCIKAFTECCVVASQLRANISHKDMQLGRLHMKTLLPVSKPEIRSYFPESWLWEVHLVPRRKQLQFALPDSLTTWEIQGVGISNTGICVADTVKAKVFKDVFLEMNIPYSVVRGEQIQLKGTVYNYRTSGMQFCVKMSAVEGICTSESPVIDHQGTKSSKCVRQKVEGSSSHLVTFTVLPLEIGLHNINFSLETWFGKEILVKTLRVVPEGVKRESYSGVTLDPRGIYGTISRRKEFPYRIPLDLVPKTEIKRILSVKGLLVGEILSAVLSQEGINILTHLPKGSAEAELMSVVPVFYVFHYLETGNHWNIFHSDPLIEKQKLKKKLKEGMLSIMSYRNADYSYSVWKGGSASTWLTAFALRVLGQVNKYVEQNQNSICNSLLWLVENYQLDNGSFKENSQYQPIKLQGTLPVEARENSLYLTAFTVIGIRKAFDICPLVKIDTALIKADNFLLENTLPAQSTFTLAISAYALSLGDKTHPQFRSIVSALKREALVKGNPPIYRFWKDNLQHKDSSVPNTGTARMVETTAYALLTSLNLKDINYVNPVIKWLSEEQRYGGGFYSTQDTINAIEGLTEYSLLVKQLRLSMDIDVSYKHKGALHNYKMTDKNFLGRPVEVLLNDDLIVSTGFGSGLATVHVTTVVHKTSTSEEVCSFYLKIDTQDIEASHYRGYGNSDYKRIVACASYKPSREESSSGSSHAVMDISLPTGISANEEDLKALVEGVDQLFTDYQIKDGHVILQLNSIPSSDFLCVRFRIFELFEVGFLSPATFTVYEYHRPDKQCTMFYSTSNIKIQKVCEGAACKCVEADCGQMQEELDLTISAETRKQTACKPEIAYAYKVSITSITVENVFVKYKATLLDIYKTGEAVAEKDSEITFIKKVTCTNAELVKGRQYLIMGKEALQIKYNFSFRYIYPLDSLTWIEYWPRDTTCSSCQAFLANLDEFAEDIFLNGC
Sequence of human C5 complement protein (P01031 19-1676): as above

Structure (SMILES)	IC50 (Human C5 [1])	Kd [2]	solubility kinetic [3]	IC50 (Human C5 [4])
CCCCCOc1cc(N2CCCN(Cc3ccnc4c3ccn4CC(=O)N3CCN(C)C(=O)C3)C2=O)ccc1OC [CU0060]	40.3 nM	14 nM		
CCCCCOc1cc(N2CCCN(Cc3ccnc4c3ccn4CC(=O)N3CCN(C)C(=O)C3)C2=O)ccc1C1CC1 [CU0061]	52.3 nM	13 nM		
CCCCCOc1cc(N2CCCN(Cc3ccnc4c3ccn4CC(=O)N3CC(=O)N(C)C(C)C3)C2=O)ccc1OC (centres unmarked) [CU0062]	33.4 nM	17.5 nM		
CCCCCOc1cc(N2CCCN(Cc3cccc4c3ncn4CC(=O)N3CCN(C(C)=O)CC3)C2=O)ccc1OC [CU0063]	28.3 nM	10.5 nM		
CCCCCOc1cc(N2CCN(Cc3cccc4c3OCO4)C2=O)ccc1OC [CU0064]	799 nM	394 nM		
CCCCCOc1cc(N2CCCN(Cc3cccc4c3OCO4)C2=O)ccc1OC [CU0065]	123 nM	370 nM		
CCCCCOc1cc(N2CCCN(Cc3ccc(CC(=O)N4CCCOCC4)cc3OC)C2=O)ccc1OC [CU0100]	21 nM	2.1 nM		
CCCCCOc1cc(N2CCCN(Cc3ccc(CC(=O)N4CCCN(C)CC4)cc3OC)C2=O)ccc1OC [CU0104]	23.8 nM	0.6 nM	269 µM (≈ 152 µg/mL)	
CCCCCOc1cc(N2CCCN(Cc3ccc(CC(=O)N4CCOC(COC)C4)cc3OC)C2=O)ccc1OC (centres unmarked) [CU0105]	130 nM	1.9 nM	427 µM (≈ 249 µg/mL)	
CCCCCOc1cc(N2CCCN(Cc3ccc(CC(=O)N[C@H]4CN(C)C[C@H]4F)cc3OC)C2=O)ccc1OC [CU0106]	43.9 nM	2 nM	453 µM (≈ 259 µg/mL)	
CCCCCOc1cc(N2CCCN(Cc3ccc(CC(=O)N4CC(=O)N(C)C(C)C4)cc3OC)C2=O)ccc1OC (centres unmarked) [CU0107]	38 nM	2 nM	266 µM (≈ 154 µg/mL)	
CCCCCOc1cc(N2CCCN(Cc3ccc(CC(=O)N[C@@H]4CNC[C@H]4F)cc3OC)C2=O)ccc1OC [CU0108]	19.5 nM	1.2 nM	> 500 µM	
CCCCCOc1cc(N2CCCN(Cc3ccc(CC(=O)NC4CCN(C(C)C)CC4)cc3OC)C2=O)ccc1OC [CU0109]	18.6 nM	1.1 nM	> 500 µM	
CCCCCOc1cc(N2CCCN(Cc3ccc(CC(=O)NC4CCN(C(C)=O)C4)cc3OC)C2=O)ccc1OC (centres unmarked) [CU0110]	16.4 nM	2 nM	295 µM (≈ 171 µg/mL)	
CCCC(F)(F)COc1cc(N2CCCN(Cc3ccc(CC(=O)N(C)C)cc3OC)C2=O)ccc1OC [CU0111]	25.2 nM	3.4 nM		
CCCC(F)(F)COc1cc(N2CCCN(Cc3ccc(CC(=O)N4CCCOCC4)cc3OC)C2=O)ccc1OC [CU0112]	25.9 nM	2.6 nM		
CCCCCOc1cc(N2CCCN(Cc3ccc(CC(=O)N(C)C)cc3Cl)C2=O)ccc1OC [CU0115]	27.9 nM	7.8 nM		
CCCCCOc1cc(N2CCCN(Cc3ccc(CC(=O)N4CCOCC4)cc3Cl)C2=O)ccc1OC [CU0116]	23.2 nM	10.3 nM		
CCCCCOc1cc(N2CCCN(Cc3ccc(CC(=O)N4CCCOCC4)cc3Cl)C2=O)ccc1OC [CU0117]	32.5 nM	8.3 nM		
CCCCCOc1cc(N2CCCN(Cc3ccc(CC(=O)N4CCCC4)cc3Cl)C2=O)ccc1OC [CU0118]	35.3 nM	12.8 nM		
CCCCCOc1cc(N2CCCN(Cc3ccc(Cc4nnco4)cc3OC)C2=O)ccc1OC [CU0120]	11.8 nM	3.6 nM		
CCCCCOc1cc(N2CCCN(Cc3ccc(CN(CC)CC)cc3OC)C2=O)ccc1OC [CU0121]	38.9 nM	27.5 nM		
CCCCCOc1cc(N2CCCN(Cc3ccc(CCN(CC)CC)cc3OC)C2=O)ccc1OC [CU0122]	17.1 nM	9.6 nM		
CCCCCOc1cc(N2CCCN(Cc3ccc(CCN4CCCC4)cc3OC)C2=O)ccc1OC [CU0123]	17.1 nM	4.2 nM	404 µM (≈ 206 µg/mL)	
CCCCCOc1cc(N2CCCN(Cc3ccc(CCN4CCOCC4)cc3OC)C2=O)ccc1OC [CU0124]	26 nM	6.4 nM		
CCCCCOc1cc(N2CCCN(Cc3cccc(-c4cnn(C5CCN(C)CC5)c4)c3F)C2=O)ccc1OC [CU0127]	30.2 nM	9.5 nM		
CCCCCOc1cc(N2CCCN(Cc3cc(-c4cnn(C5COC5)c4)ccc3OC)C2=O)ccc1OC [CU0129]	61.5 nM	23.8 nM		
CCCCCOc1cc(N2CCCN(Cc3cccc4c3c(C)cn4CC(=O)N(C)C)C2=O)ccc1OC [CU0231]	20.3 nM	0.9 nM	64 µM (≈ 33.3 µg/mL)	

Structure (SMILES)	IC50 (Human C5 [1])	Kd [2]	solubility kinetic [3]	IC50 (Human C5 [4])
CCCCCOc1cc(N2CCCN(Cc3cccc4c3c(F)cn4CC(=O)N(C)C)C2=O)ccc1OC [CU0232]	21.6 nM	1.3 nM	< 10 µM	
CCCCCOc1cc(N2CCCN(Cc3cccc4c3ccn4CC(=O)N3CCCC3)C2=O)ccc1OC [CU0235]	29.4 nM	3.8 nM		
CCCCCOc1cc(N2CC[C@H](C)N(Cc3cccc4c3ccn4CC(=O)N3CCNC(=O)C3)C2=O)ccc1OC [SC0003]				9.9 nM
CCCCCOc1cc(N2CC[C@H](C)N(Cc3cccc4c3ccn4CC(=O)N3CCCOCC3)C2=O)ccc1OC [SC0004]				10.5 nM
CCCCCOc1cc(N2CC[C@H](C)N(Cc3cccc4c3ccn4CC(=O)N3CCOC(COC)C3)C2=O)ccc1OC (some centres unmarked) [SC0005]				11.2 nM
CCCCCOc1cc(N2CC[C@H](C)N(Cc3cccc4c3ccn4CC(=O)NC3CC(O)C3)C2=O)ccc1OC (some centres unmarked) [SC0006]				11.2 nM
CCCCCOc1cc(N2CC[C@H](C)N(Cc3cccc4[nH]ccc34)C2=O)ccc1OC [SC0010]				24.7 nM
CCCCCOc1cc(N2CC[C@H](C)N(Cc3cccc4c3ccn4CC(=O)N3CCOCC3)C2=O)ccc1OC [SC0012]				28.5 nM
CCCCCOc1cc(N2CC[C@H](C)N(Cc3cccc4c3ccn4Cc3cccnc3)C2=O)ccc1OC [SC0013]				46.7 nM
CCCCCOc1cc(N2CC[C@@H](C)N(Cc3cccc4c3ccn4CC(=O)N(C)C)C2=O)ccc1OC [SC0014]				146 nM
CCCCCOc1cc(N2CC[C@@H](C)N(Cc3ccnc4[nH]ccc34)C2=O)ccc1OC [SC0015]				222 nM
CCCCCOc1cc(N2CC(CO)CN(Cc3cc(F)ccc3OC)C2=O)ccc1OC (centres unmarked) [SC0016(1)]				8.4 nM
CCCCCOc1cc(N2CC(CO)CN(Cc3cc(F)ccc3OC)C2=O)ccc1OC (centres unmarked) [SC0016(2)]				12.8 nM
CCCCCOc1cc(N2CC(C)CN(Cc3cc(F)ccc3OC)C2=O)ccc1OC (centres unmarked) [SC0018]				44.7 nM
CCCCCOc1cc(N2CC(C)CN(Cc3ccc(CC(=O)O)cc3OC)C2=O)ccc1OC (centres unmarked) [SC0019]				55.9 nM
CCCCCOc1cc(N2C[C@H](C)CN(Cc3cc(F)ccc3OC)C2=O)ccc1OC [SC0020]				66.8 nM
CCCCCOc1cc(N2C[C@@H](C)CN(Cc3cc(F)ccc3OC)C2=O)ccc1OC [SC0021]				71.5 nM
CCCCCOc1cc(N2CC(O)(CO)CN(Cc3cc(F)ccc3OC)C2=O)ccc1OC (centres unmarked) [SC0022]				140 nM
CCCCCOc1cc(N2CC(COCc3ccncn3)CN(Cc3cc(F)ccc3OC)C2=O)ccc1OC (centres unmarked) [SC0023]				111 nM
CCCCCOc1cc(N2CC(COCC(=O)O)CN(Cc3cc(F)ccc3OC)C2=O)ccc1OC (centres unmarked) [SC0024]				59.3 nM
CCCCCOc1cc(N2CC(COCC(=O)N(C)C)CN(Cc3cc(F)ccc3OC)C2=O)ccc1OC (centres unmarked) [SC0025]				59.4 nM
CCCCCOc1cc(N2CC(COCC(=O)N(C)CCO)CN(Cc3cc(F)ccc3OC)C2=O)ccc1OC (centres unmarked) [SC0026]				59.7 nM
CCCCCOc1cc(N2CC(CO)CN(Cc3ccc(Br)cc3OC)C2=O)ccc1OC (centres unmarked) [SC0027]				65.1 nM
CCCCCOc1cc(N2CC(COCC(N)=O)CN(Cc3cc(F)ccc3OC)C2=O)ccc1OC (centres unmarked) [SC0028]				53.7 nM
CCCCCOc1cc(N2CC(COCC(=O)N3CCOCC3)CN(Cc3cc(F)ccc3OC)C2=O)ccc1OC (centres unmarked) [SC0029]				84.5 nM
CCCCCOc1cc(N2CC(COCC(=O)NC)CN(Cc3cc(F)ccc3OC)C2=O)ccc1OC (centres unmarked) [SC0030]				94.5 nM
CCCCCOc1cc(N2CC(Cn3cc(C)cn3)CN(Cc3cc(F)ccc3OC)C2=O)ccc1OC (centres unmarked) [SC0031]				96 nM
